Measurements: US20220257569A1, “INDOLE-OXADIAZOLE COMPOUNDS AND THEIR THERAPEUTIC USE” (THE GOVERNING COUNCIL OF THE UNIVERSITY OF TORONTO, priority 2018, published 2022)
“Also recorded” adds a separate entry of the source.

Key:
DATKO mice [1] = assay: Open field test in DATKO mice and WT littermates; format: in vivo; conditions: 10 mg/kg; for Locomotor Activity (total distance traveled) / Stereotypy (total stereotypic movements) / Vertical Activity (total): mean±SEM
Excerpt: DAT1/SLC6A3 gene polymorphism associations have been identified in various psychiatric disorders, including ADHD, BD and SCZ. Also, in line with reduced functioning of the dopamine transporter (DAT) in BD patients, mice without functioning DAT display behavioural abnormalities that model mania observed in BD and that mimic positive symptoms in SCZ. These mice are accepted as a model for assessing the effects of novel small molecules that may have utility in modulating the dopamine dysfunction; deficits respond to both lithium and antipsychotics (Beaulieu et al., 2004; Gainetdinov et al., 1999; Ralph et al., 2001).
(§1) Adult (>P70) GluN1-knockdown (GluN1KD—F1: C571Bl/6J x 129S1/SvlmJ) and DAT-knockout (DATKO—C57Bl/6J), balanced for sex, were treated with either vehicle (1:1:18-Tween80:95% ethanol:saline) or a novel CB1 negative allosteric modulator (CB1 NAM), ABM300, at 10 mg/kg, was tested in behavioural assays, and compared to littermate controls. Locomotor, stereotypic movements and vertical activity were tested, along with anxiety/mania and sensorimotor gating behaviours. All data were analyzed with two- or three-way ANOVA, as appropriate, and corrected for multiple comparisons.
(§2) Classically, locomotor output has been used as a gold standard for the measure of dopamine system dysfunction. The role of dopamine in movement control is well defined and, in its simplest forms, testing for hyperactivity is based on the premise that enhanced dopaminergic activity in rodents leads to enhanced motor activity (van den Buuse et al., 2010). Locomotor, stereotypic and vertical activity was recorded using digital activity monitors, quantifying horizontal and vertical activity, along with repetitive behaviour, via infrared beam breaks. GluN1 KD and DATKO display basal hyperactivity, with increases in stereotypic behaviours which can be ameliorated with antipsychotics (Peleg-Raibstein et al., 2008).

GluN1KD mice = assay: Open field test in GluN1KD mice and WT littermates; format: in vivo; conditions: 10 mg/kg; for Locomotor Activity (total distance traveled) / Stereotypy (total stereotypic movements) / Vertical Activity (total): mean±SEM
Excerpt: Functional NMDARs are composed of a common GluN1 subunit and one of four GluN2 subunits (GluN2A-GluN2D) combined in an undetermined ratio to make the heteromeric receptor complex. Recent studies using post mortem prefrontal cortex samples from patients with SCZ and depression, display a series of changes in NMDAR regulation. Endocannabinoids, via CB1Rs, control the presence of NR1 C1 subunits in the neural membrane which has implications for psychosis and SCZ. […] The GluN1KD (NMDAR hypofunction model) mouse line expresses 5-10% of the normal level of the subunit. GluN1KD mice display behavioural abnormalities that have been related to SCZ; these behaviours are normalized by the antipsychotics haloperidol and clozapine. At the dopamine level, GluN1KD mice have remodelled dopamine neurons, leading to a state of hyperdopaminergia, manifesting as an increase in tonic firing rates of dopaminergic neurons (Ferris et al., 2014).
as §1, §2

mice fed a HFD diet = assay: Non-alcoholic fatty liver disease (NAFLD) model, high fat diet mice; format: in vivo
Experimental: Hepatic triglycerides were measured using an ethanolic-KOH saponification method for lysing liver tissue and hydrolyzing triglyceride molecules to release free glycerol.
Serum ALT, a marker for liver damage, was assessed using an Infinity™ ALT Liquid Stable Reagent (ThermoFisher).
A) A representative vehicle-treated liver is characterized by extensive cytoplasmic clearing indicative of both microvesicular and macrovesicular steatosis. […] Formalin-fixed livers were sectioned at […] and stained using standard H&E staining.
A) A representative vehicle-treated liver is characterized by regions of large ORO-stained vacuoles. […] Frozen OCT-fixed livers were cryosectioned at […] and stained using a conventional ORO staining technique, which stains for neutral lipids.
Diet-induced obese (DIO) mouse models can recapitulate the endocrine and metabolic dysfunction observed in obese humans, and thus serve as ideal preclinical models fortesting novel therapeutic compounds. To induce fatty liver or NAFL, male C57BL/6 mice (n=10 vehicle; n=10 CB1 NAM) are fed a high fat diet (60% calories from fat, TD.06414) for a minimum of 8 weeks starting at 6 weeks of age. Control mice (n=10; vehicle TD.08806) are fed a diet consisting of 10% calories from fat. Mice are weighed weekly to monitor weight gain, and food consumption assessed as the average amount of food consumed per day to determine a potential central effect on appetite suppression. […] Mice are dosed daily with 5 or 10 mg/kg indole-oxadiazole or vehicle (5% ethanol: 5% Tween 80:90% saline) by i.p. administration. After 28 days of administration, glucose tolerance and insulin tolerance tests are conducted on separate days. Blood is collected by terminal cardiac puncture under isoflurane anesthetic followed by cervical dislocation to collect sufficient volumes for the subsequent measurement of multiple analytes (insulin, ALT, triglycerides, adiponectin, leptin). Liver is weighed and collected in formalin (H&E staining for histopathology) and OCT (Oil Red O staining for lipid) or snap frozen for mRNA, protein and the assessment of hepatic triglycerides. Gene expression analyses is conducted to assess the levels of CB1 receptor, FAAH, and various lipogenic and fatty acid transport genes.

cannabinoid CB1 receptor = target: T1, cannabinoid CB1 receptor (Homo sapiens, UniProt P21554); assay: PathHunter β-Arrestin assay (allosteric inhibition of agonist Emax); format: cell-based; conditions: FIG. 1; agonist CP55,940; calculated by GraphPad Prism; read-out: IC50 for reduction of Emax of CP55,940
T1 construct: host or cells: HEK293 CB1 β-arrestin cells
T1 sequence (P21554 whole entry): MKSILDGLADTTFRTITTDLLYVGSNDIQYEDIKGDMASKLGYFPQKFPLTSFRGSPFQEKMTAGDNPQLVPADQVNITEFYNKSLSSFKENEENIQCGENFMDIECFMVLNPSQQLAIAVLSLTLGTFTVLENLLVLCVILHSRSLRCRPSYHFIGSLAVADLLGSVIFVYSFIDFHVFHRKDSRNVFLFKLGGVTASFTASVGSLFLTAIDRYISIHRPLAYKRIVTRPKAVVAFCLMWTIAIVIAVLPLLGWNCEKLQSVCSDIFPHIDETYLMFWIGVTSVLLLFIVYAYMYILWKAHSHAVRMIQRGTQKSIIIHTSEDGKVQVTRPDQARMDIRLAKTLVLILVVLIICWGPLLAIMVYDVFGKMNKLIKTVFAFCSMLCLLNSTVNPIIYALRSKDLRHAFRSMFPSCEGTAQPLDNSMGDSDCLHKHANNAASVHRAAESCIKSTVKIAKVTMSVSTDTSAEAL

DATKO mice [2] = assay: Pre-pulse inhibition (PPI) of acoustic startle response; format: in vivo; conditions: 10 mg/kg
Experimental: as §1
Loss of PPI is a common symptom found in SCZ and is widely accepted as an endophenotype. It is commonly considered an “interface” of psychosis and cognition. PPI deficits have been described in other psychiatric diseases; during acute mania in BD (Perry et al., 2001). PPI was measured via automated startle boxes. GluN1 KD and DATKO mice all display deficits in PPI, and this behaviour is responsive to treatment with antipsychotics.

[3] = WT (F1: C57Bl/6J x 129S1/SvlmJ) mice, open field
[4] = HFD 8 weeks, then 10 mg/kg daily for 4 weeks
[5] = HFD 8 weeks, then 10 mg/kg daily for 4 weeks, non-fasted mice
[6] = mouse model of fatty liver disease

## CCc1c(-c2nnc(Nc3ccccc3)o2)[nH]c2ccc(Cl)cc12 [ABM300, 5-(5-Chloro-3-ethyl-1H-indol-2-yl)-N-phenyl-1,3,4-oxadiazol-2-amine]
DATKO mice [1]; DATKO mice
  effect on hyperactivity (in words): reduces hyperactivity
DATKO mice [1]; DATKO mice, open field
  effect on abnormal stereotypic behaviours (in words): reduces abnormal stereotypic behaviours
  effect on abnormal vertical exploration (risk-taking behaviour) (in words): reduces abnormal vertical exploration
  Locomotor Activity (total distance traveled): 13120 ± 1961 cm
  Stereotypy (total stereotypic movements): 900 ± 96
  Vertical Activity (total): 530 ± 101
DATKO mice [1]; WT (C57Bl/6J) mice, open field
  Locomotor Activity (total distance traveled): 1851 ± 378 cm
  Stereotypy (total stereotypic movements): 533 ± 69
  Vertical Activity (total): 262 ± 69
GluN1KD mice; GluN1KD mice
  effect on hyperactivity (in words): reduces hyperactivity
GluN1KD mice; GluN1KD mice, open field
  effect on abnormal stereotypic behaviours (in words): reduces abnormal stereotypic behaviours
  effect on abnormal vertical exploration (risk-taking behaviour) (in words): reduces abnormal vertical exploration
  Locomotor Activity (total distance traveled): 5857 ± 1242 cm
  Stereotypy (total stereotypic movements): 891 ± 93
  Vertical Activity (total): 479 ± 142
GluN1KD mice; [3]
  Locomotor Activity (total distance traveled): 688 ± 193 cm
  Stereotypy (total stereotypic movements): 298.80 ± 45
  Vertical Activity (total): 43.91 ± 26
Mice fed a HFD diet; [4]
  Hepatic Triglycerides: 48.9 ± 14.6 mg/g tissue weight
  Serum ALT (ALT activity): 18.1 ± 4.0 U/L
Mice fed a HFD diet; [5]
  Oil Red O (ORO) stained liver sections (in words): smaller ORO-stained vacuoles
  effect on macrovesicular and microvesicular steatosis, H&E stained liver sections (in words): reduces the macrovesicular and microvesicular steatosis; also recorded: cytoplasmic clearing characteristic of glycogen accumulation
Mice fed a HFD diet; [6]
  effect on levels of triglycerides (in words): significantly reduces
  effect on serum ALT (in words): significantly reduces
Cannabinoid CB1 receptor
  IC50: 1 nM
DATKO mice [2]
  effect on sensorimotor gating deficits, pre-pulse inhibition (in words): rescues sensorimotor gating deficits
